Laboratory results: ChEMBL document CHEMBL3885881, “DrugMatrix”

Species on record: Rattus norvegicus
Test: DrugMatrix - Regimen: Daily Repeat
Type: toxicity, organism-based, Sprague-Dawley
Design: regimen Daily Repeat, gender Male, age 6-8 weeks
Details: in vivo, po, route oral GAVAGE, vehicle .5 % CMC; for BASOPHIL / EOSINOPHIL / ERYTHROCYTE COUNT / HEMATOCRIT / HEMOGLOBIN / LEUKOCYTE COUNT / LYMPHOCYTE / MEAN CORPUSCULAR HEMOGLOBIN / MEAN CORPUSCULAR HEMOGLOBIN CONCENTRATION / MEAN CORPUSCULAR VOLUME / MONOCYTE / NEUTROPHIL / PLATELET COUNT: tissue Blood; for ALANINE AMINOTRANSFERASE / ALBUMIN / ALKALINE PHOSPHATASE / ASPARTATE AMINOTRANSFERASE / BLOOD UREA NITROGEN / CHLORIDE / CHOLESTEROL / CREATINE PHOSPHOKINASE / CREATININE / GLUCOSE / PHOSPHORUS / POTASSIUM / SODIUM / TOTAL BILIRUBIN / TOTAL PROTEIN: tissue Plasma
[1] = 0 mg/kg, 72 h, dose level Control, time 3 day
[2] = 0 mg/kg, 120 h, dose level Control, time 5 day
[3] = 0.09 mg/kg, 72 h, dose level Low, time 3 day
[4] = 0.09 mg/kg, 120 h, dose level Low, time 5 day
[5] = 0.9 mg/kg, 72 h, dose level High, time 3 day
[6] = 0.9 mg/kg, 120 h, dose level High, time 5 day

What does the source list for `CCN1C[C@]2(COC)[C@H](O)C[C@H](OC)[C@@]34[C@@H]5C[C@@]6(O)[C@H](OC(=O)c7ccccc7)[C@@H]5[C@@](OC(C)=O)([C@@H]([C@H](OC)[C@H]23)[C@@H]14)[C@@H](O)[C@@H]6OC` [ACONITINE]?
BASOPHIL [1]: 0.68%; EOSINOPHIL [1]: 0.46%; ERYTHROCYTE COUNT [1]: 7.15 x10E6/uL; HEMATOCRIT [1]: 45.44%; HEMOGLOBIN [1]: 14.1 G/DL; LEUKOCYTE COUNT [1]: 9.78 x10E3/uL; LYMPHOCYTE [1]: 84.44%; MEAN CORPUSCULAR HEMOGLOBIN [1]: 19.72 pg; MEAN CORPUSCULAR HEMOGLOBIN CONCENTRATION [1]: 31 G/DL; MEAN CORPUSCULAR VOLUME [1]: 63.66 fL; MONOCYTE [1]: 2.14%; NEUTROPHIL [1]: 11.16%; PLATELET COUNT [1]: 1378.2 x10E3/uL; ALANINE AMINOTRANSFERASE [1]: 42.33 u/L; ALBUMIN [1]: 3.8 G/DL; ALKALINE PHOSPHATASE [1]: 388.17 u/L; ASPARTATE AMINOTRANSFERASE [1]: 68 u/L; BLOOD UREA NITROGEN [1]: 16.17 mg/dL; CHLORIDE [1]: 96.67 MEQ/L; CHOLESTEROL [1]: 71 mg/dL; CREATINE PHOSPHOKINASE [1]: 156.17 u/L; CREATININE [1]: 0.57 mg/dL; GLUCOSE [1]: 193.67 mg/dL; PHOSPHORUS [1]: 11.43 mg/dL; POTASSIUM [1]: 7 MEQ/L; SODIUM [1]: 140.33 MEQ/L; TOTAL BILIRUBIN [1]: 0.48 mg/dL; TOTAL PROTEIN [1]: 6.8 G/DL; BASOPHIL [2]: 1.47%; EOSINOPHIL [2]: 1%; ERYTHROCYTE COUNT [2]: 7.12 x10E6/uL; HEMATOCRIT [2]: 45.47%; HEMOGLOBIN [2]: 14.1 G/DL; LEUKOCYTE COUNT [2]: 11.38 x10E3/uL; LYMPHOCYTE [2]: 82.57%; MEAN CORPUSCULAR HEMOGLOBIN [2]: 19.82 pg; MEAN CORPUSCULAR HEMOGLOBIN CONCENTRATION [2]: 31.02 G/DL; MEAN CORPUSCULAR VOLUME [2]: 63.88 fL; MONOCYTE [2]: 2.2%; NEUTROPHIL [2]: 11.97%; PLATELET COUNT [2]: 1267 x10E3/uL; ALANINE AMINOTRANSFERASE [2]: 38 u/L; ALBUMIN [2]: 3.72 G/DL; ALKALINE PHOSPHATASE [2]: 391 u/L; ASPARTATE AMINOTRANSFERASE [2]: 65.83 u/L; BLOOD UREA NITROGEN [2]: 14.17 mg/dL; CHLORIDE [2]: 107.67 MEQ/L; CHOLESTEROL [2]: 61 mg/dL; CREATINE PHOSPHOKINASE [2]: 148.33 u/L; CREATININE [2]: 0.57 mg/dL; GLUCOSE [2]: 177.17 mg/dL; PHOSPHORUS [2]: 12.07 mg/dL; POTASSIUM [2]: 7.2 MEQ/L; SODIUM [2]: 151.5 MEQ/L; TOTAL BILIRUBIN [2]: 0.58 mg/dL; TOTAL PROTEIN [2]: 6.72 G/DL; BASOPHIL [3]: 0.43%; EOSINOPHIL [3]: 0.4%; ERYTHROCYTE COUNT [3]: 7.13 x10E6/uL; HEMATOCRIT [3]: 45.67%; HEMOGLOBIN [3]: 14.3 G/DL; LEUKOCYTE COUNT [3]: 11.21 x10E3/uL; LYMPHOCYTE [3]: 84.83%; MEAN CORPUSCULAR HEMOGLOBIN [3]: 20.07 pg; MEAN CORPUSCULAR HEMOGLOBIN CONCENTRATION [3]: 31.3 G/DL; MEAN CORPUSCULAR VOLUME [3]: 64.07 fL; MONOCYTE [3]: 2.23%; NEUTROPHIL [3]: 11.1%; PLATELET COUNT [3]: 1445.33 x10E3/uL; ALANINE AMINOTRANSFERASE [3]: 31.33 u/L; ALBUMIN [3]: 3.93 G/DL; ALKALINE PHOSPHATASE [3]: 342 u/L; ASPARTATE AMINOTRANSFERASE [3]: 61.33 u/L; BLOOD UREA NITROGEN [3]: 14.33 mg/dL; CHLORIDE [3]: 96.67 MEQ/L; CHOLESTEROL [3]: 69.33 mg/dL; CREATINE PHOSPHOKINASE [3]: 136.67 u/L; CREATININE [3]: 0.57 mg/dL; GLUCOSE [3]: 209 mg/dL; PHOSPHORUS [3]: 12.67 mg/dL; POTASSIUM [3]: 6.4 MEQ/L; SODIUM [3]: 140.67 MEQ/L; TOTAL BILIRUBIN [3]: 0.4 mg/dL; TOTAL PROTEIN [3]: 7.1 G/DL; BASOPHIL [4]: 0.73%; EOSINOPHIL [4]: 0.3%; ERYTHROCYTE COUNT [4]: 7.49 x10E6/uL; HEMATOCRIT [4]: 47.87%; HEMOGLOBIN [4]: 14.97 G/DL; LEUKOCYTE COUNT [4]: 9.72 x10E3/uL; LYMPHOCYTE [4]: 82.5%; MEAN CORPUSCULAR HEMOGLOBIN [4]: 20.07 pg; MEAN CORPUSCULAR HEMOGLOBIN CONCENTRATION [4]: 31.37 G/DL; MEAN CORPUSCULAR VOLUME [4]: 63.9 fL; MONOCYTE [4]: 2%; NEUTROPHIL [4]: 13.77%; PLATELET COUNT [4]: 1482.33 x10E3/uL; ALANINE AMINOTRANSFERASE [4]: 38.67 u/L; ALBUMIN [4]: 3.83 G/DL; ALKALINE PHOSPHATASE [4]: 409.67 u/L; ASPARTATE AMINOTRANSFERASE [4]: 66.33 u/L; BLOOD UREA NITROGEN [4]: 13.33 mg/dL; CHLORIDE [4]: 107 MEQ/L; CHOLESTEROL [4]: 62.67 mg/dL; CREATINE PHOSPHOKINASE [4]: 135.67 u/L; CREATININE [4]: 0.67 mg/dL; GLUCOSE [4]: 154.33 mg/dL; PHOSPHORUS [4]: 12.77 mg/dL; POTASSIUM [4]: 7.43 MEQ/L; SODIUM [4]: 151.33 MEQ/L; TOTAL BILIRUBIN [4]: 0.5 mg/dL; TOTAL PROTEIN [4]: 6.93 G/DL; BASOPHIL [5]: 0.57%; EOSINOPHIL [5]: 0.37%; ERYTHROCYTE COUNT [5]: 6.91 x10E6/uL; HEMATOCRIT [5]: 44.07%; HEMOGLOBIN [5]: 13.83 G/DL; LEUKOCYTE COUNT [5]: 11.28 x10E3/uL; LYMPHOCYTE [5]: 85.87%; MEAN CORPUSCULAR HEMOGLOBIN [5]: 20.03 pg; MEAN CORPUSCULAR HEMOGLOBIN CONCENTRATION [5]: 31.4 G/DL; MEAN CORPUSCULAR VOLUME [5]: 63.73 fL; MONOCYTE [5]: 1.8%; NEUTROPHIL [5]: 10.03%; PLATELET COUNT [5]: 1654.67 x10E3/uL; ALANINE AMINOTRANSFERASE [5]: 36 u/L; ALBUMIN [5]: 3.73 G/DL; ALKALINE PHOSPHATASE [5]: 364.67 u/L; ASPARTATE AMINOTRANSFERASE [5]: 63.33 u/L; BLOOD UREA NITROGEN [5]: 14 mg/dL; CHLORIDE [5]: 97.33 MEQ/L; CHOLESTEROL [5]: 62.67 mg/dL; CREATINE PHOSPHOKINASE [5]: 126.33 u/L; CREATININE [5]: 0.5 mg/dL; GLUCOSE [5]: 187 mg/dL; PHOSPHORUS [5]: 11.57 mg/dL; POTASSIUM [5]: 6.97 MEQ/L; SODIUM [5]: 138.67 MEQ/L; TOTAL BILIRUBIN [5]: 0.4 mg/dL; TOTAL PROTEIN [5]: 6.6 G/DL; BASOPHIL [6]: 0.47%; EOSINOPHIL [6]: 0.3%; ERYTHROCYTE COUNT [6]: 7.11 x10E6/uL; HEMATOCRIT [6]: 44.93%; HEMOGLOBIN [6]: 13.73 G/DL; LEUKOCYTE COUNT [6]: 9.26 x10E3/uL; LYMPHOCYTE [6]: 88.1%; MEAN CORPUSCULAR HEMOGLOBIN [6]: 19.37 pg; MEAN CORPUSCULAR HEMOGLOBIN CONCENTRATION [6]: 30.6 G/DL; MEAN CORPUSCULAR VOLUME [6]: 63.23 fL; MONOCYTE [6]: 1.83%; NEUTROPHIL [6]: 9.33%; PLATELET COUNT [6]: 1288 x10E3/uL; ALANINE AMINOTRANSFERASE [6]: 40.33 u/L; ALBUMIN [6]: 3.67 G/DL; ALKALINE PHOSPHATASE [6]: 314 u/L; ASPARTATE AMINOTRANSFERASE [6]: 66 u/L; BLOOD UREA NITROGEN [6]: 12.33 mg/dL; CHLORIDE [6]: 108.33 MEQ/L; CHOLESTEROL [6]: 66 mg/dL; CREATINE PHOSPHOKINASE [6]: 136 u/L; CREATININE [6]: 0.63 mg/dL; GLUCOSE [6]: 161 mg/dL; PHOSPHORUS [6]: 12.37 mg/dL; POTASSIUM [6]: 7.3 MEQ/L; SODIUM [6]: 151.67 MEQ/L; TOTAL BILIRUBIN [6]: 0.33 mg/dL; TOTAL PROTEIN [6]: 6.57 G/DL
